Experimental data published in PubChem BioAssay (NCI).
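Five concentrations, 48 hours, 96-well plates. At the GI50, growth is halved. TGI denotes the concentration required for complete inhibition of growth.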

Assays:
Assay in all cases: NCI anticancer screen, dose series, 48 h
RXF 393 renal = tested on: RXF 393 renal
EKVX NSCLC = tested on: EKVX NSCLC
HCT-116 colon = tested on: HCT-116 colon
T-47D breast = tested on: T-47D breast
U251 CNS = tested on: U251 CNS
SF-539 CNS = tested on: SF-539 CNS
NCI-H226 lung = tested on: NCI-H226 lung
OVCAR-4 ovarian = tested on: OVCAR-4 ovarian
SF-295 CNS = tested on: SF-295 CNS
BT-549 breast = tested on: BT-549 breast

SMILES | TGI (RXF 393 renal) [µM] | TGI (EKVX NSCLC) [µM] | TGI (HCT-116 colon) [µM] | TGI (T-47D breast) [µM] | TGI (U251 CNS) [µM] | TGI (SF-539 CNS) [µM] | TGI (NCI-H226 lung) [µM] | TGI (OVCAR-4 ovarian) [µM] | TGI (SF-295 CNS) [µM] | GI50 (RXF 393 renal) [µM] | GI50 (HCT-116 colon) [µM] | GI50 (T-47D breast) [µM] | GI50 (U251 CNS) [µM] | GI50 (NCI-H226 lung) [µM] | GI50 (OVCAR-4 ovarian) [µM] | GI50 (SF-295 CNS) [µM] | TGI (BT-549 breast) [µM]
CCOC(CN(C)C(=S)Nc1cccc2ccccc12)OCC | > 10 | > 10 | > 10 | > 10 | > 10 | > 10 | > 10 | > 10 | > 10 |  |  |  |  |  |  |  | 
O=c1nc(-c2ccccc2)cc(-c2ccccc2O)[nH]1 | > 100 | > 100 | > 100 |  | > 100 | > 100 | > 100 | > 100 | > 100 |  |  |  |  |  |  |  | 
Cc1cccc(C)c1NC(=O)C(=O)CC(=O)c1cccc([N+](=O)[O-])c1 |  | > 100 | > 100 |  | > 100 | > 100 | > 100 | > 100 | > 100 |  |  |  |  |  |  |  | 
O=C1C(Cl)=C(Nc2ccccc2O)C(=O)N1Cc1ccccc1 | 30.7 |  | 33.7 | 52.7 | 36.5 |  | 48.8 | > 100 | 52.9 | 12.5 | 19.6 | 23.3 | 19.2 | 20.1 | 43.1 | 26.2 | 
O=C(O)CN(c1ccccc1)S(=O)(=O)c1ccc([N+](=O)[O-])cc1 | > 100 | > 100 |  |  | > 100 | > 100 | > 100 | > 100 | > 100 |  |  |  |  |  |  |  | 
Nc1ccc2nc3n(c2c1)C(=O)c1ccccc1-3 | > 100 | > 100 | > 100 |  | > 100 | > 100 | > 100 | > 100 | > 100 |  |  |  |  |  |  |  | > 100
OCC(O)CNc1ccnc2cc(Cl)ccc12 (stereo not drawn) | > 100 | > 100 | > 100 |  | > 100 | > 100 | > 100 | > 100 | > 100 |  |  |  |  |  |  |  | 
C=CCn1c2c(sc1=S)C(S)N=CN2 (stereo not drawn) | > 100 | > 100 | > 100 |  | > 100 | > 100 | > 100 | > 100 | > 100 |  |  |  |  |  |  |  | 
COC(=O)/C(=C\c1ccc(N(CCC#N)CCC#N)cc1)NC(=O)c1cc([N+](=O)[O-])ccc1Cl | > 100 | > 100 | > 100 |  | > 100 | > 100 | > 100 | > 100 | > 100 |  |  |  |  |  |  |  | 
